Measurements from US20040110821A1, “GAL3 receptor antagonists for the treatment of affective disorders” (priority 2002, published 2004).
Marks after values point to notes of the source that are not given here.

Assays:
Male Sprague-Dawley rats = assay: Rat Forced Swim Test (FST); format: in vivo; conditions: for overall profile in the Forced Swim Test (conclusion in words): rat, in vivo
[1] = system: Male albino Sprague-Dawley rats; assay: Rat Social Interaction Test (SIT); format: in vivo; conditions: for overall profile in the Social Interaction Test (conclusion in words): rat, in vivo
Protocol: Rats were allowed to acclimate to the animal care facility for 5 days and were housed singly for 5 days prior to testing. Animals were handled for 5 minutes per day. The design and procedure for the Social Interaction Test was carried out as previously described by Kennett, et al. (1997). On the test day, weight matched pairs of rats (±5%), unfamiliar to each other, were given identical treatments and returned to their home cages. Animals were randomly divided into 5 treatment groups, with 5 pairs per group, and were given one of the following i.p. treatments: Example 92 (10, 30 or 100 mg/kg), vehicle (1 ml/kg) or chlordiazepoxide (5 mg/kg). Dosing was 1 hour prior to testing. Rats were subsequently placed in a white perspex test box or arena (54×37×26 cm), whose floor was divided up into 24 equal squares, for 15 minutes. An air conditioner was used to generate background noise and to keep the room at approximately 74° F. All sessions were videotaped using a JVC camcorder (model GR-SZ1, Elmwood Park, N.J.) with either TDK (HG ultimate brand) or Sony 30 minute videocassettes. All sessions were conducted between 1:00-4:30 P.M. Active social interaction, defined as grooming, sniffing, biting, boxing, wrestling, following and crawling over or under, was scored using a stopwatch (Sportsline model no. 226, 1/100 sec. discriminability). The number of episodes of rearing (animal completely raises up its body on its hind limbs), grooming (licking, biting, scratching of body), and face washing (i.e. hands are moved repeatedly over face), and number of squares crossed were scored. Passive social interaction (animals are lying beside or on top of each other) was not scored. All behaviors were assessed later by an observer who was blind as to the treatment of each pair. At the end.of each test, the box was thoroughly wiped with moistened paper towels.
Male albino Sprague-Dawley rats (Taconic Farms, N.Y.) were housed in pairs under a 12 hr light dark cycle (lights on at 0700 hrs.) with free access to food and water.
Example 92 was dissolved in 100% DMSO (Sigma Chemical Co., St. Louis, Mo.). Chlordiazepoxide (purchased from Sigma Chemical Co., St. Louis, Mo.) was dissolved in double distilled water. The vehicle consisted of 50% DMSO (v/v). All drug solutions were made up 10 minutes prior to injection and the solutions were discarded.
Example 34 was dissolved in 5% lactic acid, v/v. The vehicle consisted of 100% dimethylacetamide (DMA) and this was used to make up all drug solutions. All drug solutions were made up fresh each day and any unused solutions were discarded at the end of the test day. The volume of drug solution administered was 1 ml/kg.
The social interaction data (time interacting, rearing and squares crossed) were subjected to a randomized, one-way ANOVA and post hoc tests conducted using the Student-Newman-Keuls test. The data were subjected to a test of normality (Shapiro-Wilk test). The data were analyzed using the GBSTAT program, version 6.5 (Dynamics Microsystems, Inc., Silver Spring, Md., 1997). All data are presented as means ±S.E.M.

human 5HT1A receptor = biological target: T1, human 5HT1A receptor (Homo sapiens, UniProt P08908); assay: Radioligand binding at 5-HT1A receptor; conditions: read-out: h5HT1A Ki
T1 construct: expressed in transfected cells; host or cells: COS-7 cells, transient, vector pCEXV-3
T1 sequence (P08908 whole entry): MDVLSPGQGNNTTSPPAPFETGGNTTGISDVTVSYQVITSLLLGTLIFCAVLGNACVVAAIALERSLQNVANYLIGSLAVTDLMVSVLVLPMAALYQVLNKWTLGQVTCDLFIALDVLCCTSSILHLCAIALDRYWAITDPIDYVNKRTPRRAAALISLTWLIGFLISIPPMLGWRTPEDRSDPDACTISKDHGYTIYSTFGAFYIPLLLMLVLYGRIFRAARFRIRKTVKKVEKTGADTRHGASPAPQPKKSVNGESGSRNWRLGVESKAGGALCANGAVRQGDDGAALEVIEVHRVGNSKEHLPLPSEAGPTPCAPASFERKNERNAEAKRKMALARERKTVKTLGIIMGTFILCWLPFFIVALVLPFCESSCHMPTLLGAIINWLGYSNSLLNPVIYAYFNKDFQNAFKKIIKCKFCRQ
Protocol: 5-HT1r Receptor: The cDNA corresponding to the 5-HT1A receptor open reading frames and variable non-coding 5′- and 3′-regions, was cloned into the eukaryotic expression vector pCEXV-3. These constructs were transfected transiently into COS-7 cells by the DEAE-dextran method (Cullen, 1987), and harvested after 72 hours. Radioligand binding assays were performed as described above for the 5-HT2A receptor, except that ^3H-8-OH-DPAT was used as the radioligand and nonspecific binding was determined by the addition of 10 μM mianserin.
(§1) Binding data were analyzed using nonlinear regression and statistical techniques available in the GraphPAD Prism package (San Diego, Calif.). Enzymatic assay data were derived from a standard curve of reference compound data.

human 5HT2A receptor = biological target: T2, human 5HT2A receptor (Homo sapiens, UniProt P28223); assay: Radioligand binding at human 5HT2A receptor; conditions: read-out: h5HT2A Ki
T2 construct: expressed in transfected cells; host or cells: COS-7 cells, transient, vector pCEXV-3
T2 sequence (P28223 whole entry): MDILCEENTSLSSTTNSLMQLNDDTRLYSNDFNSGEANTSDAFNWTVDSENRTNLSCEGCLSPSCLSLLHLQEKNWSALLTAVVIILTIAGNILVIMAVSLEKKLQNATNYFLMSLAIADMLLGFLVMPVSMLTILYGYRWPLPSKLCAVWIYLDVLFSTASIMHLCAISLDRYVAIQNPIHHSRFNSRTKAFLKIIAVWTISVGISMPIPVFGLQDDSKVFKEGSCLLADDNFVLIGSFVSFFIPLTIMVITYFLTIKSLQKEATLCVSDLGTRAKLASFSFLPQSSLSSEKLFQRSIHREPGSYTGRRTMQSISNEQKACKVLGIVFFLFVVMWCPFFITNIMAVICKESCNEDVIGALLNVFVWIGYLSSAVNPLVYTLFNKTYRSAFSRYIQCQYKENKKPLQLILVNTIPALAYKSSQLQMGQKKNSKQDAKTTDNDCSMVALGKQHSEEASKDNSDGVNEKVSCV
Protocol: Human 5HT2; Receptor: The coding sequence of the human 5HT2A receptor was obtained from a human brain cortex cDNA library, and cloned into the cloning site of pCEXV-3 eukaryotic expression vector. This construct was transfected into COS-7 cells by the DEAE-dextran method (Cullen, 1987). Cells were harvested after 72 hours and lysed by sonication in 5 mM Tris-HCl, 5 mM EDTA, pH 7.5. The cell lysates were subjected to centrifugation at 1000 rpm for 5 minutes at 4° C., and the supernatant was subjected to centrifugation at 30,000×g for 20 minutes at 4° C. The pellet was suspended in 50 mM Tris-HCl buffer (pH 7.7 at room temperature) containing 10 mM MgSO4, 0.5 mM EDTA, and 0.1% ascorbate. The affinity of compounds at 5HT2A receptors were determined in equilibrium competition binding assays using [^3H]ketanserin (1 nM). Nonspecific binding was defined by the addition of 10 μM mianserin. The bound radioligand was separated by filtration through GF/B filters using a cell harvester.
as §1

rat D3 receptor = biological target: T3, rat D3 receptor (Rattus norvegicus, UniProt P19020); assay: Binding at rat dopamine D3 receptor; conditions: read-out: rD3 Ki
T3 construct: purchased BioSignal, Inc. (Montreal, Canada)
T3 sequence (P19020 whole entry): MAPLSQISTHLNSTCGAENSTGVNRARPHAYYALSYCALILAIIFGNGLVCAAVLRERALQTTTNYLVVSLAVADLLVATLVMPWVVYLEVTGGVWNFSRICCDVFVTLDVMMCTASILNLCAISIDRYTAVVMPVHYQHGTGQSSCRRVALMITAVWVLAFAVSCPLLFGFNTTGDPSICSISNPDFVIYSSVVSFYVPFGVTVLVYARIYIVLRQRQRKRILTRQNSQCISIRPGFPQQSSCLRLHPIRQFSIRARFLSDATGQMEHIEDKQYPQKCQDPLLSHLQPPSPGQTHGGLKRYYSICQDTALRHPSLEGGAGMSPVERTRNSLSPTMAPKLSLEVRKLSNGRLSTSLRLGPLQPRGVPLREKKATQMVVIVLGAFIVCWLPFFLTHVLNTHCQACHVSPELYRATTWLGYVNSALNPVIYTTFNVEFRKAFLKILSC
Source text: Other receptors: Cell membranes expressing human dopamine D1, D2, D4 and rat D3 receptors were purchased through BioSignal, Inc. (Montreal, Canada). Binding assays using the histamine H1 receptor; dopamine receptors; and α1A, α1B, and α2 adrenergic receptors may be carried out according to the procedures described in U.S. Pat. No. 5,780,485, the disclosure of which is hereby incorporated by reference in its entirety into this application. Binding assays using the dopamine D5 receptor may be carried out according to the procedures described in U.S. Pat. No. 5,882,855, the disclosure of which is hereby incorporated by reference in its entirety into this application. Binding assays for the human α1D adrenergic receptor may be carried out according to the procedures described in U.S. Pat. No. 6,156,518, the disclosure of which is hereby incorporated by reference in its entirety into this application.
as §1

[2] = 1 mg/kg i.p., single injection 1 h before 5 min test
[3] = 3 mg/kg i.p., single injection 1 h before 5 min test
[4] = 10 mg/kg i.p., single injection 1 h before 5 min test
[5] = 0.3 mg/kg p.o., single administration 1 hr before 5 min test
[6] = 0.3 mg/kg p.o., single administration 1 hr before 5 min test, listed as EX34
[7] = 1 mg/kg p.o., single administration 1 hr before 5 min test
[8] = 1 mg/kg p.o., single administration 1 hr before 5 min test, listed as EX34
[9] = 3 mg/kg p.o., single administration 1 hr before 5 min test
[10] = 3 mg/kg p.o., single administration 1 hr before 5 min test, listed as EX34
[11] = 10 mg/kg p.o., single administration 1 hr before 5 min test
[12] = 10 mg/kg p.o., single administration 1 hr before 5 min test, listed as EX34

Compound: O=C1C(=Nc2cccc(C(F)(F)F)c2)c2ccccc2N1c1ccccc1 [Example 92, 1-PHENYL-3-[[3-(TRIFLUOROMETHYL)PHENYL]IMINO]-1,3-DIHYDRO-2H-INDOL-2-ONE]
- Diving (Male Sprague-Dawley rats; [2]): 0.6±0.2 counts
- Immobility (Male Sprague-Dawley rats; [2]): 28 ± 1.0 counts
- Swimming (Male Sprague-Dawley rats; [2]): 20±1.1 counts
- Diving (Male Sprague-Dawley rats; [3]): 0.6±0.3 counts
- Swimming (Male Sprague-Dawley rats; [3]): 21±0.9 counts
- Diving (Male Sprague-Dawley rats; [4]): 0.5±0.5 counts
- Swimming (Male Sprague-Dawley rats; [4]): 18±0.9 counts
- Diving (Male Sprague-Dawley rats; 30 mg/kg i.p., single injection 1 h before 5 min test): 0.2±0.2 counts
- overall profile in the Forced Swim Test (conclusion in words) (Male Sprague-Dawley rats): has antidepressant-like properties
- ataxia or sedation accompanying decreased locomotor activity ([1]; 100 mg/kg i.p.): did not appear to be accompanied by ataxia or sedation
- social interaction of familiar cage mates ([1]; familiar cage mates, another study (not reported)): no significant increase in interaction
- stereotypes or aggressive behaviors ([1]; i.p., Social Interaction Test): did not elicit stereotypes or produce aggressive behaviors
- overall profile in the Social Interaction Test (conclusion in words) [1]: has the profile of an anxiolytic-like drug in the Social Interaction Test
- Ki (human 5HT1A receptor): > 50 µM
- Ki (human 5HT2A receptor): > 50 µM
- Ki (rat D3 receptor): 48.2 µM

Compound: Cc1ccc(Nc2cc(N3CCCCC3)nc(N3CCN(c4ncccc4C(F)(F)F)CC3)n2)cc1 [Example 34]
- Climbing (Male Sprague-Dawley rats; [5]): 3.3 ± 0.7 counts
- Diving (Male Sprague-Dawley rats; [5]): not significantly altered
- Immobility (Male Sprague-Dawley rats; [5]): significantly decreased immobility
- Swimming (Male Sprague-Dawley rats; [5]): significant increase in swimming behavior
- Diving (Male Sprague-Dawley rats; [6]): 0.2 ± 0.1 counts
- Immobility (Male Sprague-Dawley rats; [6]): 45 ± 1.5^a counts
- Swimming (Male Sprague-Dawley rats; [6]): 11.6 ± 0.9^d counts
- Climbing (Male Sprague-Dawley rats; [7]): significant increase in climbing
- Diving (Male Sprague-Dawley rats; [7]): not significantly altered
- Immobility (Male Sprague-Dawley rats; [7]): significantly decreased immobility
- Swimming (Male Sprague-Dawley rats; [7]): significant increase in swimming behavior
- Climbing (Male Sprague-Dawley rats; [8]): 5.0 ± 0.8^c counts
- Diving (Male Sprague-Dawley rats; [8]): 0.3 ± 0.2 counts
- Immobility (Male Sprague-Dawley rats; [8]): 35 ± 1.9^b counts
- Swimming (Male Sprague-Dawley rats; [8]): 19.6 ± 1.3^d,e counts
- Climbing (Male Sprague-Dawley rats; [9]): 4.3 ± 0.8 counts
- Diving (Male Sprague-Dawley rats; [9]): not significantly altered
- Immobility (Male Sprague-Dawley rats; [9]): significantly decreased immobility
- Swimming (Male Sprague-Dawley rats; [9]): significant increase in swimming behavior
- Diving (Male Sprague-Dawley rats; [10]): 0.3 ± 0.3 counts
- Immobility (Male Sprague-Dawley rats; [10]): 35 ± 2.0^b counts
- Swimming (Male Sprague-Dawley rats; [10]): 20.8 ± 1.3^d,e counts
- Climbing (Male Sprague-Dawley rats; [11]): did not significantly alter swimming or climbing
- Diving (Male Sprague-Dawley rats; [11]): not significantly altered
- Immobility (Male Sprague-Dawley rats; [11]): did not significantly decrease in immobility
- Swimming (Male Sprague-Dawley rats; [11]): did not significantly alter swimming or climbing
- Climbing (Male Sprague-Dawley rats; [12]): 2.0 ± 0.4 counts
- Diving (Male Sprague-Dawley rats; [12]): 0.4 ± 0.3 counts
- Immobility (Male Sprague-Dawley rats; [12]): 49 ± 1.4 counts
- Swimming (Male Sprague-Dawley rats; [12]): 8.2 ± 1.2 counts
- overall profile in the Forced Swim Test (conclusion in words) (Male Sprague-Dawley rats): produces an effect in the FST that resembles that of antidepressants
- overall profile in the Social Interaction Test (conclusion in words) [1]: produces an anxiolytic-like action in the social interaction test
- Ki (human 5HT1A receptor): > 50 µM
- Ki (human 5HT2A receptor): > 50 µM
